{"source": "the supplement of paper PMC10307832", "assay_in_all_cases": "relative viability (nuclei count vs DMSO), 5 days (fraction); higher = more cells survive", "key": {"[1]": {"compound": "C1=CC=C2C(=C1)N=C(S2)C(C#N)C3=NC(=NC=C3)NCCC4=CN=CC=C4 + CC(=O)c1c(C)c2cnc(Nc3ccc(N4CCNCC4)cn3)nc2n(C2CCCC2)c1=O [Palbociclib] (partner 0.5 µM)", "how_it_was_run": "(§1)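 One day after seeding in 1536-well plates, lung cancer cell lines were dosed by pin tool. Dosing was either single-drug or a fixed anchor-drug dose plus five library-drug doses (not always all listed) in √10 steps. After 5 days, nuclei were stained in one fix-and-stain step and counted on 4× images, and relative viability is the nuclei count of treated wells over that of vehicle wells, given as the median of duplicate plates.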"}, "[2]": {"compound": "C1=CC=C2C(=C1)N=C(S2)C(C#N)C3=NC(=NC=C3)NCCC4=CN=CC=C4 + CCNC(=O)c1noc(-c2cc(C(C)C)c(O)cc2O)c1-c1ccc(CN2CCOCC2)cc1 [Luminespib] (partner 0.01 µM)", "how_it_was_run": "as §1"}, "[3]": {"compound": "COc1cc(N2CCC(N3CCN(C)CC3)CC2)ccc1Nc1ncc(Cl)c(Nc2ccccc2S(=O)(=O)C(C)C)n1 [NVP-TAE684] + O=C(CCCCCCC(=O)Nc1ccccc1)NO [Vorinostat] (partner 1 µM)", "how_it_was_run": "as §1"}, "[4]": {"compound": "COc1cc2/c(=N/c3ccc(Br)cc3F)nc[nH]c2cc1OCC1CCN(C)CC1 [Vandetanib] + CC(=O)Nc1cccc(-n2c(=O)n(C3CC3)c(=O)c3c(Nc4ccc(I)cc4F)n(C)c(=O)c(C)c32)c1 [Trametinib] (partner 0.02 µM)", "how_it_was_run": "as §1"}}}
{"cell line": "UMC-11", "values": [{"measurement": "relative viability", "setting": "[1]; first compound 0.005 µM", "value": 0.377}, {"measurement": "relative viability", "setting": "[1]; first compound 0.01581 µM", "value": 0.32}, {"measurement": "relative viability", "setting": "[1]; first compound 0.05 µM", "value": 0.294}, {"measurement": "relative viability", "setting": "[1]; first compound 0.1581 µM", "value": 0.346}, {"measurement": "relative viability", "setting": "[1]; first compound 0.5 µM", "value": 0.31}, {"measurement": "relative viability", "setting": "[2]; first compound 0.005 µM", "value": 0.735}, {"measurement": "relative viability", "setting": "[2]; first compound 0.01581 µM", "value": 1.04}, {"measurement": "relative viability", "setting": "[2]; first compound 0.05 µM", "value": 0.861}, {"measurement": "relative viability", "setting": "[2]; first compound 0.1581 µM", "value": 1.03}, {"measurement": "relative viability", "setting": "[2]; first compound 0.5 µM", "value": 0.957}, {"measurement": "relative viability", "setting": "[3]; first compound 0.2 µM", "value": 0.385}, {"measurement": "relative viability", "setting": "[3]; first compound 0.6325 µM", "value": 0.336}, {"measurement": "relative viability", "setting": "[3]; first compound 2 µM", "value": 0.186}, {"measurement": "relative viability", "setting": "[4]; first compound 0.02 µM", "value": 0.82}, {"measurement": "relative viability", "setting": "[4]; first compound 0.06325 µM", "value": 0.674}, {"measurement": "relative viability", "setting": "[4]; first compound 0.2 µM", "value": 0.627}, {"measurement": "relative viability", "setting": "[4]; first compound 0.6325 µM", "value": 0.632}, {"measurement": "relative viability", "setting": "[4]; first compound 2 µM", "value": 0.583}]}
